Patent US20170081357A1, “[…] ACTIVE 17-NITROGEN SUBSTITUTED ESTRATREINTHIAZOLE DERIVATIVES AS INHIBITORS OF 17.BETA-HYDROXYSTEROID DEHYDROGENASE” (FORENDO PHARMA LTD, priority 2013, published 2017)

Experiments:
[1] = target: T1, recombinant human 17β-HSD1 (Homo sapiens, UniProt P14061); assay: Inhibition of recombinant human 17β-HSD1 (conversion of 3H-estrone to estradiol, HPLC); assay type: biochemical; conditions: inhibitor 1 μM; 30 nM estrone, 1 mM NADPH, 30 min at RT; read-out: 17β-HDS1 Inhibition % at 1 μM
T1 construct: made in house; host or cells: Sd9 (Sf9) insect cells, baculovirus (Bac to Bac Expression System); microsomal fraction
T1 sequence (P14061 1-328): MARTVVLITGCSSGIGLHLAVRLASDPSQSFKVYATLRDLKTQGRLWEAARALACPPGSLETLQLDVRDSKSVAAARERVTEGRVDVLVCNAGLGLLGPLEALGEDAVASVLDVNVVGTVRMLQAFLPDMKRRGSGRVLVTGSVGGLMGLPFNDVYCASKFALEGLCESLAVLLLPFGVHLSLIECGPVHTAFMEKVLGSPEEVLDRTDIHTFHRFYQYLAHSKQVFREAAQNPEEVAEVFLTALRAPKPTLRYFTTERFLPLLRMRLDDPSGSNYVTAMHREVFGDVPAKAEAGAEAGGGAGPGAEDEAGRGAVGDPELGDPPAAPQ
Method in brief: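 Microsomal recombinant human 17β-HSD1 (1 μg/ml) from insect cells incubated 30 min at RT in 20 mM KH2PO4 pH 7.4 with 30 nM 3H-estrone, 1 mM NADPH and inhibitor at 1 μM or 0.1 μM (1% DMSO). Estrone/estradiol separated by reverse-phase HPLC with radioactivity flow detection; % inhibition = 100 − % conversion.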

[2] = target: T2, recombinant human 17β-HSD2 (Homo sapiens, UniProt P37059); assay: Inhibition of recombinant human 17β-HSD2 (conversion of 3H-estradiol to estrone, HPLC); assay type: biochemical; conditions: inhibitor 1 μM; 50 nM estradiol, 1 mM NADH, 30 min at RT
T2 construct: made in house; host or cells: Sd9 (Sf9) insect cells, baculovirus (Bac to Bac Expression System); fractionated cell extract
T2 sequence (P37059 1-387): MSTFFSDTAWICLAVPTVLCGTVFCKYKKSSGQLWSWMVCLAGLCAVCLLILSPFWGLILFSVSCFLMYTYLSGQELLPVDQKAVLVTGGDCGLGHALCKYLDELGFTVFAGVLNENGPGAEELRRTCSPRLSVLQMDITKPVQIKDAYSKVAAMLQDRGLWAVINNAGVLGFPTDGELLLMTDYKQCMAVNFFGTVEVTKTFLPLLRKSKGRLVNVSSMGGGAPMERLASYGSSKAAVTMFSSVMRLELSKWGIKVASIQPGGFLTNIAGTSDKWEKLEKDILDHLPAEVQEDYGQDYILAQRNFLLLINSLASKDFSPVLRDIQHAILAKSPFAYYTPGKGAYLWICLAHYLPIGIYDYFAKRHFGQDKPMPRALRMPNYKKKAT
Method in brief: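 Baculovirus/Sf9-expressed enzyme in detergent-solubilised membrane extract, 4 μg/ml, incubated 30 min at RT in 20 mM KH2PO4 pH 8.5 with 50 nM estradiol (³H-tracer) and 1 mM NADH; inhibitor at 1 μM or 0.1 μM, 1% DMSO final. TCA-stopped; estrone/estradiol separated by reverse-phase HPLC with flow scintillation; % inhibition = 100 − % conversion.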

[3] = Metabolic stability assay, human liver microsome and homogenate incubations; assay type: in vitro ADME; conditions: human liver homogenate or microsomes, LC/PDA/TOF-MS
Procedure: The in vitro metabolic stability of the compounds of the invention was determined for exemplified compounds using human liver microsome and homogenate incubations. The incubation time points used with or without appropriate cofactors were 0 min and 60 min. Samples were collected at both time points and substrates were detected using LC/PDA/TOF-MS. In vitro metabolic stability (% remaining after 60 min in human liver homogenate or microsomes) of the compounds were calculated and the results are summarized in Table 3.

For `CO/N=C1\C[C@@H](CCC(=O)Nc2ncc(C)s2)C2C3CCc4c(ccc(O)c4F)C3CC[C@]12C` (stereo partly drawn) [Compound 92, 3-{(13S,15R)-4-Fluoro-3-hydroxy-17-[(E)-methoxyimino]-13-methyl-7,8,9,11,12,13,14,15,16,17-decahydro-6H-cyclopenta[a]phenanthren-15-yl}-N-(5-methylthiazol-2-yl)propanamide], which inhibition at 1 µM [1] is on record?
The inhibition at 1 µM was 90%.

And the inhibition at 1 µM [2]?
The inhibition at 1 µM was 7%.

What about the “In vitro metabolic stability, % remaining after 60 min” value [3] of the same compound?
The value was 68%.
